Measurements reported in PMC5077133, “Towards Development of Small Molecule Lipid II Inhibitors as Novel Antibiotics” (PLoS ONE, 2016).

Key:
P. aeruginosa X13273 = assay: Antibacterial activity (MIC, broth dilution); type: cell-based; details: CLSI, in µg/mL
Protocol: (§1) Determination of the Minimal Inhibitory Concentrations (MIC) by dilution was carried out by broth dilution according to CLSI standards.

E. aerogenes ATCC 13048 = assay: Antibacterial activity (MIC, broth dilution); type: cell-based; details: CLSI
Protocol: as §1

S. aureus MRSA 1094 = assay: Antibacterial activity (MIC, broth dilution); type: cell-based; details: CLSI
Protocol: as §1

E. cloacae ATCC 13047 = assay: Antibacterial activity (MIC, broth dilution); type: cell-based; details: CLSI
Protocol: as §1

[1] = test system: S. aureus HFH-30123 (MRSA); assay: Antibacterial activity (MIC, broth dilution); type: cell-based; details: CLSI
Protocol: as §1

P. aeruginosa ATCC 27853 = assay: Antibacterial activity (MIC, broth dilution); type: cell-based; details: CLSI
Protocol: as §1

[2] = test system: K. pneumoniae NR-15410 (KPC); assay: Antibacterial activity (MIC, broth dilution); type: cell-based; details: CLSI
Protocol: as §1

[3] = test system: K. pneumoniae NR-15411 (KPC); assay: Antibacterial activity (MIC, broth dilution); type: cell-based; details: CLSI
Protocol: as §1

E. faecium F118 (VRE) = assay: Antibacterial activity (MIC, broth dilution); type: cell-based; details: CLSI, in µg/mL
Protocol: as §1

P. aeruginosa PA01 = assay: Antibacterial activity (MIC, broth dilution); type: cell-based; details: CLSI
Protocol: as §1

E. faecium EF1509 (VRE) = assay: Antibacterial activity (MIC, broth dilution); type: cell-based; details: CLSI, in µg/mL
Protocol: as §1

HeLa cells = assay: Cytotoxicity against mammalian cells (MTS assay); type: cell-based
Protocol: The cytotoxicity concentration of antibacterial compounds that produces half maximal decrease in viability (CC50) against mammalian cells (HeLa, ATCC CCL-2.2) was determined as described. The effect of compounds on HeLa cell viability was assessed in triplicate by measuring the mitochondrial activity using MTS assays according to the manufacturer’s instructions (Cell Titer 96 proliferation assay, Promega). The cells were incubated for 72 hours in RPMI1640 medium containing the compounds at final concentrations ranging from 64 to 0.125 μg/ml. CC50 was determined using a standard curve of serially diluted untreated cells in each experiment.

A. baumanii ATCC 19606 = assay: Antibacterial activity (MIC, broth dilution); type: cell-based, Acinetobacter baumanii; details: CLSI, in µg/mL
From the text: Staphylococcus aureus ATCC 29213, Escherichia coli ATCC 25922, Enterococcus faecalis ATCC 29212, Streptococcus pneumonia ATCC 49619 and Acinetobacter baumanii ATCC 19606 were obtained from Microbiologics (St. Cloud, MN). E. faecalis ATCC 51575, ATCC 51299 and REMEL C99707 and E. faecium ATCC 51559 (MDR), REMEL IH79985 and REMEL C110914 were generously provided by the Laboratory of Pathology, University of Maryland Baltimore School of Medicine. Unless stated otherwise, chemicals and reagents were purchased from Sigma.
as §1

[4] = Lipid II binding by Surface Plasmon Resonance; details: SPR, immobilized 3-Lipid II, 25°C
Protocol: Short-chain water-soluble Lipid II containing a lipid tail of three isoprene units was generated and purified essentially as described. Typically, M. flavus vesicles (120 μmol lipid-Pi) were incubated together with 500 μmol UDP-GlcNAc, 500 μmol UDP-MurNAC-pentapeptide and 400 μmol farnesyl phosphate in 100 mM Tris-HCl pH 8.0, 5 mM MgCl2. The incubation lasted two hours at room temperature for 3-P. The synthesis of 3-Lipid II was followed using RP-8 reversed phase TLC (Merck) developed in 75% methanol. For purification, the membranes were removed by centrifugation at 40,000 x g and the supernatant was collected and loaded on a C18 HPLC column and eluted with a linear gradient from 50 mM ammonium bicarbonate to 100% methanol in 30 minutes. Farnesyl-Lipid II (3-Lipid II) eluted at approximately 60% methanol. Its identity was confirmed by mass spectroscopy. Surface Plasmon Resonance binding experiments were carried out on a BIAcore T100 system (BIAcore Inc., Piscataway, NY) at 25°C. The assay buffer was 10 mM HEPES, 150 mM NaCl, 0.05% surfactant P20, pH 7.4 (± 3 mM EDTA) supplemented with 10% DMSO. 3-Lipid II (50 RUs) was immobilized on CM5 sensor chips using the amine-coupling chemistry recommended by the manufacturer. For initial determination of binding, compounds were introduced into the flow-cells (30 μl/min) in the running buffer at 10 μM. Resonance signals were corrected for nonspecific binding by subtracting the background of the control flow-cell. After each analysis, the sensor chip surfaces were regenerated with 50 mM NaOH for 30 s at a flow rate 100 μl/min, and equilibrated with the buffer prior to next injection. For binding kinetics studies, binding isotherms were analyzed with manufacturer-supplied software for BIAcore T100.

In the case of Cn1cc(/C=C/c2cc(-c3ccccc3)cc(-c3ccccc3)[o+]2)c2ccccc21.F[B-](F)(F)F [6jc66-1], the “Antibacterial activity (MIC) P. aeruginosa X13273” value (P. aeruginosa X13273) is reported as “>=64”, the Antibacterial activity (MIC) E. aerogenes ATCC 13048 (E. aerogenes ATCC 13048) is reported as no less than 64 µg/mL and the Antibacterial activity (MIC) S. aureus MRSA 1094 (S. aureus MRSA 1094) is reported as 2.83 µg/mL. The Antibacterial activity (MIC) E. cloacae ATCC 13047 (E. cloacae ATCC 13047) was no less than 64 µg/mL, the Antibacterial activity (MIC) S. aureus HFH-30123 (MRSA) [1] was 4 µg/mL and the Antibacterial activity (MIC) P. aeruginosa ATCC 27853 (P. aeruginosa ATCC 27853) was no less than 64 µg/mL. For the same molecule, the Antibacterial activity (MIC) K. pneumoniae NR-15410 (KPC) [2] was no less than 64 µg/mL, the Antibacterial activity (MIC) K. pneumoniae NR-15411 (KPC) [3] was no less than 64 µg/mL and the “Antibacterial activity (MIC) E. faecium F118 (VRE)” value (E. faecium F118 (VRE)) was 8. For the same molecule, the Antibacterial activity (MIC) P. aeruginosa PA01 (P. aeruginosa PA01) was no less than 64 µg/mL, the “Antibacterial activity (MIC) E. faecium EF1509 (VRE)” value (E. faecium EF1509 (VRE)) was 4 and the “CC50% (72 h HeLa cells)” value (HeLa cells) was 1.36. For the same molecule, the “Antibacterial activity (MIC) A. baumanii ATCC 19606” value (A. baumanii ATCC 19606) was 45.25 and the Kd [4] was 2.9 ± 0.3 µM.
With Brc1ccc(-c2cc(/C=C/c3cc4c5c(c3)CCCN5CCC4)[o+]c(-c3ccc(Br)cc3)c2)cc1.F[B-](F)(F)F [6jc-69-5] the “Antibacterial activity (MIC) P. aeruginosa X13273” value (P. aeruginosa X13273) was “>=64”, the Antibacterial activity (MIC) E. aerogenes ATCC 13048 (E. aerogenes ATCC 13048) was no less than 64 µg/mL and the Antibacterial activity (MIC) S. aureus MRSA 1094 (S. aureus MRSA 1094) was no less than 64 µg/mL. It also gave an Antibacterial activity (MIC) E. cloacae ATCC 13047 (E. cloacae ATCC 13047) of no less than 64 µg/mL, an Antibacterial activity (MIC) S. aureus HFH-30123 (MRSA) [1] of 64 µg/mL and an Antibacterial activity (MIC) P. aeruginosa ATCC 27853 (P. aeruginosa ATCC 27853) of no less than 64 µg/mL. The Antibacterial activity (MIC) K. pneumoniae NR-15410 (KPC) [2] was no less than 64 µg/mL, the Antibacterial activity (MIC) K. pneumoniae NR-15411 (KPC) [3] was no less than 64 µg/mL and the “Antibacterial activity (MIC) E. faecium F118 (VRE)” value (E. faecium F118 (VRE)) was 11.31. The Antibacterial activity (MIC) P. aeruginosa PA01 (P. aeruginosa PA01) was no less than 64 µg/mL, the “Antibacterial activity (MIC) E. faecium EF1509 (VRE)” value (E. faecium EF1509 (VRE)) was 6 and the “CC50% (72 h HeLa cells)” value (HeLa cells) was 4.43. The “Antibacterial activity (MIC) A. baumanii ATCC 19606” value (A. baumanii ATCC 19606) was “>=64” and the Kd [4] was 32.7 ± 2 µM.
In the case of Cc1ccc(-c2cc(/C=C/c3cn(C)c4ccccc34)[o+]c(-c3ccc(C)cc3)c2)cc1.F[B-](F)(F)F [6jc65-2], the “Antibacterial activity (MIC) P. aeruginosa X13273” value (P. aeruginosa X13273) is reported as “>=64”, the Antibacterial activity (MIC) E. aerogenes ATCC 13048 (E. aerogenes ATCC 13048) is reported as 64 µg/mL and the Antibacterial activity (MIC) S. aureus MRSA 1094 (S. aureus MRSA 1094) is reported as 2 µg/mL. It also gave an Antibacterial activity (MIC) E. cloacae ATCC 13047 (E. cloacae ATCC 13047) of 64 µg/mL, an Antibacterial activity (MIC) S. aureus HFH-30123 (MRSA) [1] of 2 µg/mL and an Antibacterial activity (MIC) P. aeruginosa ATCC 27853 (P. aeruginosa ATCC 27853) of no less than 64 µg/mL. The Antibacterial activity (MIC) K. pneumoniae NR-15410 (KPC) [2] was 64 µg/mL, the Antibacterial activity (MIC) K. pneumoniae NR-15411 (KPC) [3] was no less than 64 µg/mL and the “Antibacterial activity (MIC) E. faecium F118 (VRE)” value (E. faecium F118 (VRE)) was 4. The Antibacterial activity (MIC) P. aeruginosa PA01 (P. aeruginosa PA01) was no less than 64 µg/mL, the “Antibacterial activity (MIC) E. faecium EF1509 (VRE)” value (E. faecium EF1509 (VRE)) was 2 and the “CC50% (72 h HeLa cells)” value (HeLa cells) was 0.94. The “Antibacterial activity (MIC) A. baumanii ATCC 19606” value (A. baumanii ATCC 19606) was 32 and the Kd [4] was 3.9 ± 0.4 µM.
For CN(C)c1ccc(/C=C/c2cc(-c3ccc(C(C)(C)C)cc3)cc(-c3ccc(C(C)(C)C)cc3)[o+]2)cc1.F[B-](F)(F)F [6jc-60-1], the “Antibacterial activity (MIC) P. aeruginosa X13273” value (P. aeruginosa X13273) was “>=64”, the Antibacterial activity (MIC) E. aerogenes ATCC 13048 (E. aerogenes ATCC 13048) was no less than 64 µg/mL and the Antibacterial activity (MIC) S. aureus MRSA 1094 (S. aureus MRSA 1094) was 8 µg/mL. It also gave an Antibacterial activity (MIC) E. cloacae ATCC 13047 (E. cloacae ATCC 13047) of no less than 64 µg/mL, an Antibacterial activity (MIC) S. aureus HFH-30123 (MRSA) [1] of 8 µg/mL and an Antibacterial activity (MIC) P. aeruginosa ATCC 27853 (P. aeruginosa ATCC 27853) of no less than 64 µg/mL. For the same molecule, the Antibacterial activity (MIC) K. pneumoniae NR-15410 (KPC) [2] was no less than 64 µg/mL, the Antibacterial activity (MIC) K. pneumoniae NR-15411 (KPC) [3] was no less than 64 µg/mL and the “Antibacterial activity (MIC) E. faecium F118 (VRE)” value (E. faecium F118 (VRE)) was 8. The Antibacterial activity (MIC) P. aeruginosa PA01 (P. aeruginosa PA01) was no less than 64 µg/mL, the “Antibacterial activity (MIC) E. faecium EF1509 (VRE)” value (E. faecium EF1509 (VRE)) was 8 and the “CC50% (72 h HeLa cells)” value (HeLa cells) was “<.78125”. The “Antibacterial activity (MIC) A. baumanii ATCC 19606” value (A. baumanii ATCC 19606) was “>=64” and the Kd [4] was 37.9 ± 4 µM.
